Test results from patent publication US20260158125A1, “PEPTIDE VACCINE” (ARGONAUT THERAPEUTICS LIMITED, priority 2021, published 2026).

Tested on: splenocytes (IFN y activated T cells)
Assay: Immunogenicity assay: peptide vaccination and interferon gamma ELispot of splenocytes
Assay type: in vivo
Conditions: Balb/c mice vaccinated day 0 and 7, 50 μg/peptide with polyIC and anti-CD40; splenocytes restimulated at 15 μg/ml
Experimental: Groups of 8 week old Balb/c mice (Charles River) were vaccinated i.v with the indicated peptide mix (Table 2), (50 μg/peptide (GenScript)) with 30 μg polyIC and 25 μg anti-CD40 mAb). As a positive control AH peptide (SPSYVYHQF SEQ ID NO: 156) vaccination was used (Huang et al., 1996). Vehicle-only mice were vaccinated with DMSO/PBS plus adjuvants as above. Mice were boosted i.v. 7 days later with the same formulation. Mice were culled 7 days post-boost and their spleens removed (4 mice per group). All animals were housed in specific pathogen-free conditions at the Biomedical Services Building (University of Oxford). All work was performed under UK Home Office license PPL PP3430109 in accordance with the UK Animal (Scientific Procedures) Act 1986. All work was performed by trained and licensed individuals.
The day before culling, Merk Multiscreen 96 well Filter Plates (Merck) were incubated with primary antibody (anti-mouse INFy mAb clone AN18, Mabtech) diluted in sterile PBS (Gibco), at 4° C. […] The splenocyte pellet was resuspended in 5 ml R10, counted and the cell concentration adjusted to 4×10^5/ml. […] The spots were quantitated on an ELISPOT counter (AID, Germany).

SPSYVYHQF (AH1 peptide) [AHI1]
immunogenicity (IFN y activated T cells, ELISpot): positive immunogenic control
